In ChEMBL document CHEMBL1129076 (J Med Chem, 1996):

Assays:
Vanilloid receptor [1] = molecular target: T1, Vanilloid receptor (Rattus norvegicus, UniProt Q9ERZ8+Q9WUD2+O35433); test: Calcium +2 uptake into Dorsal Root Ganglion(DRG) neurons; format: functional, tissue-based
Vanilloid receptor [2] = molecular target: T1, Vanilloid receptor; test: Ability to stimulate uptake of Calcium into Dorsal Root Ganglion(DRG) neurons; format: functional, tissue-based
[3] = molecular target: Transient receptor potential cation channel subfamily V member 1 (Rattus norvegicus) (UniProt O35433); test: Relative potency(RTX) against Dorsal Root Ganglion (DRG) membranes using RTX binding assay.; format: functional, tissue-based
[4] = molecular target: Transient receptor potential cation channel subfamily V member 1 (Rattus norvegicus, UniProt O35433); test: Binding affinity against Vanilloid receptor in dorsal Root Ganglion (DRG) membranes using [3H]RTX binding assay.; format: tissue-based
[5] = molecular target: Transient receptor potential cation channel subfamily V member 1 (Rattus norvegicus) (UniProt O35433); test: Binding affinity against Vanilloid receptor in dorsal root ganglion (DRG) membranes relative to resinferatoxin (RTX); not tested; format: tissue-based
[6] = molecular target: Transient receptor potential cation channel subfamily V member 1 (Rattus norvegicus) (UniProt O35433); test: Relative potency against RTX binding to Dorsal Root Ganglion (DRG) membranes; format: functional, tissue-based

Sequence of Transient receptor potential cation channel subfamily V member 1 (O35433 whole entry): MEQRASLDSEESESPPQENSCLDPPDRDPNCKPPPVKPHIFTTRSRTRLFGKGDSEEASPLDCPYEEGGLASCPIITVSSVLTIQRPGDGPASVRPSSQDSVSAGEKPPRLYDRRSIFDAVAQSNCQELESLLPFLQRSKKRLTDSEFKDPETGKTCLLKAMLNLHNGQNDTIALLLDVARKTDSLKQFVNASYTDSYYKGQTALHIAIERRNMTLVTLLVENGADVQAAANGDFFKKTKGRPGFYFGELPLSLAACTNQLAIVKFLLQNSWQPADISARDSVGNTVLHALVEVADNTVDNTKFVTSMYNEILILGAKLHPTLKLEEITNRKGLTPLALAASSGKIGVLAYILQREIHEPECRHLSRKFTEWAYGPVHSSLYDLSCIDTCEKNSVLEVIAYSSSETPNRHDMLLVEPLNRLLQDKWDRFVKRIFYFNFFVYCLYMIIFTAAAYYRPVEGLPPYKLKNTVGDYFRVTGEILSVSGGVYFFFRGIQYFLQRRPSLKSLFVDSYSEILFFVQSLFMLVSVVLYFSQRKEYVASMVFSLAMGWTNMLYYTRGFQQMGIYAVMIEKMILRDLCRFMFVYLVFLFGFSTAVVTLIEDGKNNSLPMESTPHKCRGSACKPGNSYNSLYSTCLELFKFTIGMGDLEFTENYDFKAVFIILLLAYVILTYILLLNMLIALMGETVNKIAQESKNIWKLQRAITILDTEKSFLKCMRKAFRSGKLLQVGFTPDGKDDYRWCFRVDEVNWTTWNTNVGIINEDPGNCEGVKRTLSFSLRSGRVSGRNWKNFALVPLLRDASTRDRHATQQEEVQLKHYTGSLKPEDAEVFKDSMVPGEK
Sequence of Transient receptor potential cation channel subfamily V member 1 (Rattus norvegicus) (O35433 whole entry): as above

Row | SMILES | EC50 (Vanilloid receptor [1]) | EC50 (Vanilloid receptor [2]) | Relative Potency [3] | Ki [4] | Relative affinity [5] | Relative Potency [6]
1 | C=C(C)[C@@]12C[C@@H](C)C34OC(Cc5ccccc5)(OC1[C@@H]3C=C(COC(C)=O)C[C@]1(O)C(=O)C(C)=C[C@@H]41)O2 (stereo partly drawn) | > 2000 nM |  |  |  |  | 
2 | C=C(C)[C@@]12C[C@@H](C)C34OC(Cc5ccccc5)(OC1[C@@H]3C=C(COC(=O)Cc1cccc(OC)c1)C[C@]1(O)C(=O)C(C)=C[C@@H]41)O2 (stereo partly drawn) | 7.89 nM |  |  |  |  | 
3 | CCCCCCCCC(=O)NCc1ccc(OCCN)c(OC)c1 | 410 nM |  |  |  |  | 
4 | CCCCCCCCC(=O)NCc1cccc(OC)c1 | > 100000 nM |  |  |  |  | 
5 | CCCCCCCCC(=O)NCc1ccc(OC)c(OC)c1 | > 6410 nM |  |  |  |  | 
6 | C=C(C)[C@@]12C[C@@H](C)C34OC(Cc5ccccc5)(OC1[C@@H]3C=C(CNC(=O)Cc1ccc(O)c(OC)c1)C[C@]1(O)C(=O)C(C)=C[C@@H]41)O2 (stereo partly drawn) |  | 122 nM | 0.013 | 10.6 nM | 0.011 | 
7 | COc1cc(CC(=O)OC/C=C/[C@H]2[C@H]3OC4(Cc5ccccc5)O[C@H]3CC[C@H]2O4)ccc1O | 9150 nM |  |  |  |  | 
8 | C=C(C)[C@@]12C[C@@H](C)C34OC(C)(OC1[C@@H]3C=C(COC(=O)Cc1ccc(O)c(OC)c1)C[C@]1(O)C(=O)C(C)=C[C@@H]41)O2 (stereo partly drawn) |  | 13.2 nM | 0.122 | 3.2 nM | 0.038 | 
9 | COc1cc(CC(=O)OCC2=C[C@H]3[C@@H]4C(C)(C)[C@]4(OC(C)=O)C(OC(C)=O)[C@@H](C)C3(O)[C@@H]3C=C(C)C(=O)[C@@]3(OC)C2)ccc1O (stereo partly drawn) | 8510 nM |  |  |  |  | 
10 | C=C(C)[C@@]12C[C@@H](C)C34OC(Cc5ccccc5)(OC1[C@@H]3C=C(COC(=O)Cc1ccc(OC)c(N=[N+]=[N-])c1)C[C@]1(O)C(=O)C(C)=C[C@@H]41)O2 (stereo partly drawn) | 10.64 nM |  |  |  |  | 
11 | C=C(C)[C@@]12C[C@@H](C)C34OC(c5ccccc5)(OC1[C@@H]3C=C(COC(=O)Cc1ccc(O)c(OC)c1)C[C@]1(O)C(=O)C(C)=C[C@@H]41)O2 (stereo partly drawn) |  | 7.6 nM | 0.21 | 0.17 nM | 0.706 | 
12 | C=C(C)C12C[C@@H](C)C34OC(Cc5ccccc5)(OC1[C@@H]3C=C(COC(=O)Cc1ccc(OCCN)c(OC)c1)C[C@]1(O)C(=O)C(C)=CC41)O2 (single isomer, unassigned) |  | 13.04 nM | 0.123 | 4.3 nM | 0.028 | 
13 | C=C(C)C12C[C@@H](C)C34OC(Cc5ccccc5)(OC1[C@@H]3C=C(COC(=O)Cc1ccccc1)C[C@]1(O)C(=O)C(C)=CC41)O2 (single isomer, unassigned) | 10.22 nM | 10.22 nM |  | 8.3 nM | 0.015 | 0.157
14 | C=C(C)C12C[C@@H](C)C34OC(Cc5ccccc5)(OC1[C@@H]3C=C(COC(=O)Cc1ccc(OC)c(OC)c1)C[C@]1(O)C(=O)C(C)=CC41)O2 (single isomer, unassigned) |  | 14.89 nM | 0.107 | 1 nM | 0.12 | 
15 | C=C(C)C12C[C@@H](C)C34OC(Cc5ccccc5)(OC1[C@@H]3C=C(COC(=O)Cc1ccc(O)c(OC)c1)C[C@]1(OC)C(=O)C(C)=C[C@@H]41)O2 (single isomer, unassigned) | 5.3 nM |  |  |  |  | 
16 | C=C(C)C12C[C@@H](C)C34OC(Cc5ccccc5)(OC1[C@@H]3C=C(CO)C[C@]1(O)C(=O)C(C)=CC41)O2 (single isomer, unassigned) |  | > 20000 nM | < 8e-05 | > 10000 nM | < 1e-05 | 
17 | CCCCCCCCC(=O)NCc1ccc(O)c(OC)c1 [NONIVAMIDE] | > 550 nM |  |  |  |  | 
18 | C=C(C)[C@]12C[C@@H](C)[C@@]34O[C@](Cc5ccccc5)(O[C@@H]1[C@@H]3C=C(COC(=O)Cc1ccc(O)c(OC)c1)C[C@]1(O)C(=O)C(C)=C[C@@H]41)O2 [RESINIFERATOXIN] |  | 1.6 nM | 1 | 0.12 nM | 1 | 
